Organism: Rattus norvegicus
Experiment: Open TG-GATES - Regimen: Single
Type: toxicity, organism-based, Sprague-Dawley
Design: regimen Single, gender Male, age 6 weeks
Conditions: in vivo, ip, 0.03 mg/kg, route intraperitoneal injection, dose 30 ug/Kg, dose level Low; for APTT / Bas / Eos / Fbg / Hb / Ht / Lym / MCH / MCHC / MCV / Mono / Neu / PT / Plat / RBC / Ret / WBC: tissue Blood; for KIDNEY_L / KIDNEY_R / KIDNEY_TOTAL: tissue Kidney; for LIVER: tissue Liver; for A/G / ALP / ALT / AST / BUN / CRE / Ca / Cl / DBIL / GLC / IP / K / LDH / Na / PL / RALB / TBIL / TC / TG / TP / gamma-GTP: tissue Plasma

`CC(=O)N[C@H]1[C@@H](O[C@@H]2O[C@H](CC(O)[C@H]3O[C@@H](n4ccc(=O)[nH]c4=O)[C@H](O)[C@@H]3O)[C@H](O)[C@H](O)[C@H]2NC(=O)/C=C/CC(C)C)O[C@H](CO)[C@@H](N)[C@@H]1O` (stereo partly specified) [TUNICAMYCIN] gave a TERMINAL_BW (9 h) of 213.3 g, an APTT (9 h) of 23.6 s and a Bas (9 h) of 0%. The Eos (9 h) was 0.6%, the Fbg (9 h) was 315.4 mg/dL and the Hb (9 h) was 13.5 g/dL. For the same molecule, the Ht (9 h) was 41%, the Lym (9 h) was 83.8% and the MCH (9 h) was 21 pg. The MCHC (9 h) was 32.9%, the MCV (9 h) was 63.8 fL and the Mono (9 h) was 2%. It also gave a Neu (9 h) of 12.8%, a PT (9 h) of 15.8 s and a Plat (9 h) of 112.5 x10_4/uL. For the same molecule, the RBC (9 h) was 643.2 x10_4/ul, the Ret (9 h) was 7.5% and the WBC (9 h) was 85.7 x10_2/uL. It also gave a KIDNEY_L (9 h) of 0.9 g, a KIDNEY_R (9 h) of 1 g and a KIDNEY_TOTAL (9 h) of 1.9 g. It also gave an LIVER (9 h) of 8.9 g, an A/G (9 h) of 1.2 and an ALP (9 h) of 1454.8 IU/L. The ALT (9 h) was 36.4 IU/L, the AST (9 h) was 71.2 IU/L and the BUN (9 h) was 12.8 mg/dL. It also gave a CRE (9 h) of 0.1 mg/dL, a Ca (9 h) of 10.8 mg/dL and a Cl (9 h) of 106 meq/L. For the same molecule, the DBIL (9 h) was 0 mg/dL, the GLC (9 h) was 181 mg/dL and the IP (9 h) was 9.3 mg/dL. For the same molecule, the K (9 h) was 4.4 meq/L, the LDH (9 h) was 174 IU/L and the Na (9 h) was 142.2 meq/L. The PL (9 h) was 129 mg/dL, the RALB (9 h) was 3 g/dL and the TBIL (9 h) was 0.01 mg/dL. It also gave a TC (9 h) of 75.4 mg/dL, a TG (9 h) of 70.4 mg/dL and a TP (9 h) of 5.5 g/dL. For the same molecule, the gamma-GTP (9 h) was 1 IU/L, the TERMINAL_BW (24 h) was 234.5 g and the APTT (24 h) was 21.3 s. It also gave a Bas (24 h) of 0%, an Eos (24 h) of 0.8% and a Fbg (24 h) of 308.6 mg/dL. It also gave a Hb (24 h) of 12.8 g/dL, a Ht (24 h) of 39.3% and a Lym (24 h) of 82%. It also gave an MCH (24 h) of 20.1 pg, an MCHC (24 h) of 32.5% and an MCV (24 h) of 61.6 fL. It also gave a Mono (24 h) of 2.6%, a Neu (24 h) of 13.4% and a PT (24 h) of 15.7 s. For the same molecule, the Plat (24 h) was 114.8 x10_4/uL, the RBC (24 h) was 637.8 x10_4/ul and the Ret (24 h) was 7.4%. It also gave a WBC (24 h) of 75.9 x10_2/uL, a KIDNEY_L (24 h) of 1 g and a KIDNEY_R (24 h) of 1.1 g. It also gave a KIDNEY_TOTAL (24 h) of 2.1 g, an LIVER (24 h) of 11.1 g and an A/G (24 h) of 1.2. For the same molecule, the ALP (24 h) was 1690.8 IU/L, the ALT (24 h) was 40.4 IU/L and the AST (24 h) was 67.8 IU/L. The BUN (24 h) was 16.6 mg/dL, the CRE (24 h) was 0.1 mg/dL and the Ca (24 h) was 10.4 mg/dL. The Cl (24 h) was 105.6 meq/L, the DBIL (24 h) was 0 mg/dL and the GLC (24 h) was 183.4 mg/dL. The IP (24 h) was 7.3 mg/dL, the K (24 h) was 4.6 meq/L and the LDH (24 h) was 148 IU/L. It also gave a Na (24 h) of 141.2 meq/L, a PL (24 h) of 141.6 mg/dL and an RALB (24 h) of 3 g/dL. For the same molecule, the TBIL (24 h) was 0.006 mg/dL, the TC (24 h) was 76.4 mg/dL and the TG (24 h) was 98.6 mg/dL. It also gave a TP (24 h) of 5.6 g/dL and a gamma-GTP (24 h) of 1.4 IU/L.

Reference: ChEMBL document CHEMBL3885861, “Open TG-GATES”
